Among the data in patent US20100317647A1 (priority 2009, published 2010) are IC50 values, retold here.

Structures are written as SMILES.

For this test, the target named is human Cat S (Homo sapiens, UniProt P25774). The test is described as follows: Cathepsin enzyme inhibition assay (fluorogenic peptide substrate cleavage). In kind it is biochemical. The note with it: human Cat S 1 nM; substrate Z-Val-Val-Arg-AMC 20 μM; pH 6.5; fluorescence over 20 minutes. The procedure: Cathepsin Enzyme Inhibition Assay
human Cat S, sequence (P25774 115-331): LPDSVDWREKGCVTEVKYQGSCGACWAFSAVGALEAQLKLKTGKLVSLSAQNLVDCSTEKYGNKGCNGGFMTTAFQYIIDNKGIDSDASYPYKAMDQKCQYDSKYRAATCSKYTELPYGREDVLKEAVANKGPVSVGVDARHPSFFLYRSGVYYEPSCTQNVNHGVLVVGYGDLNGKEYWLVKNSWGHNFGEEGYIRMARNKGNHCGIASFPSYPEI
Enzyme activity is measured by observing the increase in fluorescence intensity caused by cleavage of a peptide substrate containing a fluorophore whose emission is quenched in the intact peptide.
Assay buffer: 100 mM potassium phosphate pH 6.5, EDTA-Na 5 mM, Triton X-100 0.001%, DTT 5 mM. Enzymes (all at 1 nM): human and mouse Cathepsin S, Cat K, Cat B, Cat L. Substrate (20 μM): Z-Val-Val-Arg-AMC, except for Cat K which uses Z-Leu-Arg-AMC (both from Bachem).
AMC=7-Amino-4-Methyl-Coumarin.
DTT=dithiothreitol. Final volume: 100 μL.
Excitation 360 nm, Emission 465 nm.
Enzyme is added to the substance dilutions in 96-well microtitre plates and the reaction is started with substrate. Fluorescence emission is measured over 20 minutes, during which time a linear increase is observed in the absence of inhibitor. IC50 are calculated by standard methods. Inhibition of human Cat S, mouse Cat S, human Cat K, mouse Cat K, human Cat B, mouse Cat B, human Cat L and mouse Cat L have been measured separately. The results obtained for human Cat S are expressed in the following table.
What is called IC50 is the midpoint of a concentration-inhibition curve. A high value points to a need for much substance. For `N#CC1(NC(=O)[C@H]2CC[C@H](S(=O)(=O)c3ccc(N4CCN(C5CC5)CC4)cc3Cl)C2)CC1` (racemic) [Example 102, (1S,3S) and (1R,3R)-3-[2-Chloro-4-(4-cyclopropyl-piperazin-1-yl)-benzenesulfonyl]-cyclopentanecarboxylic acid (1-cyano-cyclopropyl)-amide], 270 nM corresponded to half-maximal inhibition (IC50).

`CC(C)(C)N1CCN(c2ccc(S(=O)(=O)[C@@H]3C[C@@H](C(=O)NC4(C#N)CC4)[C@H](C(=O)N4CCC(F)(F)C4)C3)c(Cl)c2)CC1` [Example 192, (1R,2R,4R)-4-[4-(4-tert-Butyl-piperazin-1-yl)-2-chloro-benzenesulfonyl]-2-(3,3-difluoro-pyrrolidine-1-carbonyl)-cyclopentanecarboxylic acid (1-cyano-cyclopropyl)-amide]: inhibition was half-maximal at 0.155 nM (IC50). `N#CCNC(=O)[C@@H]1C[C@H](S(=O)(=O)c2ccc(F)cc2Cl)C[C@H]1COc1ccc(F)cc1` (single isomer, unassigned) [Example 144] yielded an IC50 of 145 nM.

As to `N#CC1(NC(=O)[C@@H]2C[C@@H](S(=O)(=O)c3ccc(F)cc3Cl)C[C@H]2C(=O)N2CCC(F)(F)C2)CC1` [Example 186, (1R,2R,4R)-4-(2-Chloro-4-fluoro-benzenesulfonyl)-2-(3,3-difluoro-pyrrolidine-1-carbonyl)-cyclopentanecarboxylic acid (1-cyano-cyclopropyl)-amide], the 50% inhibitory concentration (IC50) amounted to 2.15 nM. As for `CO[C@@H]1C[C@H](S(=O)(=O)c2ccc(-c3cnn(CC4(C)COC4)c3)cc2C(F)(F)F)C[C@H]1C(=O)NC1(C#N)CC1` (racemic) [Example 214, (1R,2R,4R) and (1S,2S,4S)-2-Methoxy-4-{4-[1-(3-methyl-oxetan-3-ylmethyl)-1H-pyrazol-4-yl]-2-trifluoromethyl-benzenesulfonyl}-cyclopentanecarboxylic acid (1-cyano-cyclopropyl)-amide], the IC50 came to 2.85 nM.

Turning to `N#CC1(NC(=O)[C@@H]2C[C@@H](S(=O)(=O)c3ccccc3)C[C@H]2C(=O)N2C[C@H]3CC[C@@H](C2)O3)CC1` [Example 17, (1R,2R,4R)-4-Benzenesulfonyl-2-((1R,5S)-8-oxa-3-aza-bicyclo[3.2.1]octane-3-carbonyl)-cyclopentanecarboxylic acid (1-cyano-cyclopropyl)-amide], the concentration for half-maximal inhibition (IC50) worked out at 1.1 nM. `N#CCNC(=O)[C@@H]1C[C@@H](S(=O)(=O)c2ccccc2Cl)C[C@H]1COc1ccc(Cl)cc1` (single isomer, unassigned) [Example 68]: half-maximal inhibition (IC50) required 2.2 nM. Turning to `CN1CCC(C#N)(NC(=O)[C@@H]2C[C@@H](S(=O)(=O)c3ccc(Cl)cc3Cl)C[C@H]2OCc2ccc(Cl)cc2)CC1` (racemic) [Example 234, (1R,2R,4R) and (1S,2S,4S)-2-(4-Chloro-benzyloxy)-4-(2,4-dichloro-benzenesulfonyl)-cyclopentanecarboxylic acid (4-cyano-1-methyl-piperidin-4-yl)-amide], it took 19 nM to reach half-maximal inhibition (IC50). With `N#CC1(NC(=O)[C@@H]2C[C@H](S(=O)(=O)c3ccc(F)cc3Cl)C[C@H]2COc2ccc(F)cc2)CC1` (single isomer, unassigned) [Example 146] the figure was 2.25 nM; with `N#CC1(NC(=O)[C@@H]2C[C@@H](S(=O)(=O)c3ccc(OCC(F)(F)F)cc3Cl)C[C@H]2C(=O)N2CCC(F)(F)C2)CC1` [Example 189, (1R,2R,4R)-4-[2-Chloro-4-(2,2,2-trifluoro-ethoxy)-benzenesulfonyl]-2-(3,3-difluoro-pyrrolidine-1-carbonyl)-cyclopentanecarboxylic acid (1-cyano-cyclopropyl)-amide], 0.675 nM. Then `Cn1cc(-c2ccc(S(=O)(=O)[C@@H]3C[C@@H](C(=O)NC4(C#N)CC4)[C@H](C(=O)N4CC(F)(F)C4)C3)c(C(F)(F)F)c2)cn1` [Example 120, (1R,2R,4R)-2-(3,3-Difluoro-azetidine-1-carbonyl)-4-[4-(1-methyl-1H-pyrazol-4-yl)-2-trifluoromethyl-benzenesulfonyl]-cyclopentanecarboxylic acid (1-cyano-cyclopropyl)-amide], with 0.2 nM; and `N#CC1(NC(=O)[C@@H]2C[C@@H](S(=O)(=O)c3ccc(Br)cc3C(F)(F)F)C[C@H]2OC2CCCC2)CC1` (racemic) [Example 195, (1R,2R,4R) and (1S,2S,4S)-4-(4-Bromo-2-trifluoromethyl-benzenesulfonyl)-2-cyclopentyloxy-cyclopentanecarboxylic acid (1-cyano-cyclopropyl)-amide], with 0.917 nM. The molecule `N#CC1(NC(=O)[C@@H]2C[C@@H](S(=O)(=O)c3ccccc3Cl)C[C@H]2OCc2ccc(Cl)cc2C(F)(F)F)CC1` (racemic) [Example 151, (1R,2R,4R) and (1S,2S,4S)-2-(4-Chloro-2-(trifluoromethyl)benzyloxy)-4-(2-chlorophenylsulfonyl)-N-(1-cyanocyclopropyl)cyclopentanecarboxamide] displayed a half-inhibitory concentration (IC50) of 2.99 nM. With `N#CC1(NC(=O)[C@@H]2C[C@@H](S(=O)(=O)c3ccccc3Cl)C[C@H]2OCc2ccc(Cl)cc2)CC1` (racemic) [Example 222, (1R,2R,4R) and (1S,2S,4S)-4-(2-Chloro-benzenesulfonyl)-2-(4-chloro-benzyloxy)-cyclopentanecarboxylic acid (1-cyano-cyclopropyl)-amide] the figure was 5.8 nM.

As to `CNC(=O)[C@@H]1C[C@H](S(=O)(=O)c2ccccc2)C[C@H]1C(=O)NC1(C#N)CC1` [Example 29, (1R,2R,4S)-4-Benzenesulfonyl-cyclopentane-1,2-dicarboxylic acid 1-[(1-cyano-cyclopropyl)-amide]2-methylamide], the midpoint of inhibition, the IC50, lay at 72.5 nM. `N#CC1(NC(=O)[C@H]2CC[C@@H](S(=O)(=O)c3ccc(-n4cccn4)cc3Cl)C2)CC1` (single isomer, unassigned) [Example 101] registered an IC50 of 610 nM. The molecule `N#CC1(NC(=O)[C@@H]2C[C@@H](S(=O)(=O)c3ccc(OCC(F)(F)F)cc3Cl)C[C@H]2C(=O)N2CC(F)(F)C2)CC1` [Example 134, (1R,2R,4R)-4-[2-Chloro-4-(2,2,2-trifluoro-ethoxy)-benzenesulfonyl]-2-(3,3-difluoro-azetidine-1-carbonyl)-cyclopentanecarboxylic acid (1-cyano-cyclopropyl)-amide] gave a half-maximal inhibitory concentration (IC50) of 1.4 nM. Molecule `CCO[C@@H]1C[C@H](S(=O)(=O)c2ccc(Br)cc2C(F)(F)F)C[C@H]1C(=O)NC1(C#N)CC1` (racemic) [Example 113, (1R,2R,4R) and (1S,2S,4S)-4-(4-Bromo-2-trifluoromethyl-benzenesulfonyl)-2-ethoxy-cyclopentanecarboxylic acid (1-cyano-cyclopropyl)-amide] registered a concentration for half-maximal inhibition (IC50) of 1.1 nM. Molecule `Cc1cccc(S(=O)(=O)[C@@H]2C[C@@H](C(=O)NC3(C#N)CC3)[C@H](C(=O)N3CCC(F)(F)C3)C2)c1` [Example 205, (1R,2R,4R)-2-(3,3-Difluoro-pyrrolidine-1-carbonyl)-4-(toluene-3-sulfonyl)-cyclopentanecarboxylic acid (1-cyano-cyclopropyl)-amide] displayed a 50% inhibitory concentration (IC50) of 0.325 nM.

For `N#CC1(NC(=O)[C@@H]2C[C@@H](S(=O)(=O)c3ccccc3Cl)C[C@H]2OCc2cc(F)c(Cl)cc2Cl)CC1` (racemic) [Example 180, (1R,2R,4R) and (1S,2S,4S)-4-(2-Chlorophenylsulfonyl)-N-(1-cyanocyclopropyl)-2-(2,4-dichloro-5-fluorobenzyloxy)cyclopentanecarboxamide], the half-maximal inhibitory concentration (IC50) was 157 nM. Molecule `CCN1CCC(C#N)(NC(=O)[C@@H]2C[C@@H](S(=O)(=O)c3ccc(-c4cnn(C)c4)cc3C(F)(F)F)C[C@H]2OC)CC1` (racemic) [Example 238, (1R,2R,4R) and (1S,2S,4S)-2-Methoxy-4-[4-(1-methyl-1H-pyrazol-4-yl)-2-trifluoromethyl-benzenesulfonyl]-cyclopentanecarboxylic acid (4-cyano-1-ethyl-piperidin-4-yl)-amide] had an IC50 of 2.35 nM. Consider `N#CC1(NC(=O)[C@@H]2C[C@@H](S(=O)(=O)c3ccccc3)C[C@H]2C(=O)N2CCNCC2)CC1` [Example 14, (1R,2R,4R)-4-Benzenesulfonyl-2-(piperazine-1-carbonyl)-cyclopentanecarboxylic acid (1-cyano-cyclopropyl)-amide], for which the 50% inhibitory concentration (IC50) was found to be 10.9 nM.

Take `CO[C@@H]1C[C@H](S(=O)(=O)c2ccc(N3CC(F)(F)C3)cc2C(F)(F)F)C[C@H]1C(=O)NC1(C#N)CC1` (racemic) [Example 206, (1R,2R,4R) and (1S,2S,4S)-4-[4-(3,3-Difluoro-azetidin-1-yl)-2-trifluoromethyl-benzenesulfonyl]-2-methoxy-cyclopentanecarboxylic acid (1-cyano-cyclopropyl)-amide]: the IC50 is 1.4 nM.

As for `N#CC1(NC(=O)[C@@H]2C[C@H](S(=O)(=O)c3ccc(Cl)cn3)C[C@H]2C(=O)N2CCC(F)(F)C2)CC1` [Example 226, (1R,2R,4S)-4-(5-Chloro-pyridine-2-sulfonyl)-2-(3,3-difluoro-pyrrolidine-1-carbonyl)-cyclopentanecarboxylic acid (1-cyano-cyclopropyl)-amide], inhibition was half-maximal at 50 nM (IC50).

For the molecule `N#CCNC(=O)[C@@H]1CC[C@H](S(=O)(=O)c2ccccc2Cl)C1` (racemic) [Example 43, 3-(2-Chloro-benzenesulfonyl)-cyclopentanecarboxylic acid cyanomethyl-amide], inhibition was half-maximal at 345 nM (IC50).
